# Results taken from patent US20130281512A1, “AGENTS FOR TREATING DISORDERS INVOLVING MODULATION OF RYANODINE RECEPTORS” (LES LABORATOIRES SERVIER, priority 2012, published 2013).
# Legend:
# [1] = system: WT mice; assay: Voluntary wheel activity and EDL specific force in WT (C57BL/6) mice; format: in vivo, mouse; settings: 50 mg/kg/d
# Method: Voluntary activity on wheel, body weight, and average water consumption were measured in the first 3 weeks. Specific muscle force was measured after 4 weeks of treatment, at the end of the study.
# Distance traveled (Km/day) over a 24 hr period was analyzed as an index of improved functional activity (see, DMD_M.2.1.002 SOP at http://www.treat-nmd.eu/). At the conclusion of the study, Extensor digitorum longus (EDL) muscle was isolated for muscle force analysis as further described hereinbelow. Blood was collected from each mouse by retro-orbital bleeds at the end of the study (after end of dark cycle—about 7 AM) to assess drug plasma concentrations. Experiments were blinded.
# At the end of the study, EDL muscle was dissected from hind limbs for isometric force analysis using the 407A Muscle Test System from Aurora Scientific (Aurora, Ontario, Canada). […] Force-frequency relationships were determined by triggering contraction using incremental stimulation frequencies (5-250 Hz for 200 ms at suprathreshold voltage). […] At the end of the force measurement, the length (Lo) of the EDL muscle while sutured in the Aurora system was measured excluding the tendons. […] The cross-sectional area (mm^2) of the EDL muscle was calculated by dividing the EDL muscle weight by the EDL muscle length and the mammalian muscle density constant of […] (Yamada, T., et al. Arthritis and rheumatism 60:3280-3289). […]
# [2] = Metabolic stability in human hepatic microsomes (Clint, predicted MF %); format: in vitro ADME
# Method: Compound solubilization: Stock solutions were made in DMSO, and working solutions in water containing 1 mg/ml BSA.
# Prediction of metabolic bioavailability: Metabolic bioavailability predictions (MF %) were based on in vitro metabolic stability measurements with hepatic microsomes assuming total absorption. Briefly, unchanged drugs were quantified by LC-MS-MS following incubation (10^−7M) with rat and human hepatic microsomes (0.33 mg protein/ml) after 0, 5, 15, 30 and 60 min of incubation in presence of NADPH (1 mM). Enzymatic reaction was stopped with methanol (v/v) and proteins were precipitated by centrifugation. The in vitro intrinsic clearances (Clint_mic) expressed as ml/min/g protein were the slope (after LN linearization) of the unchanged drug remaining concentration versus incubation time. In vitro Clint were then scaled up to in vivo whole body (vivoClint) using 0.045 mg prot/kg of liver and liver weight of 11 g for the rat and 1.2 kg for Man.
# [3] = system: ischemia-reperfusion induced heart failure; assay: Model of chronic post-ischemic heart failure in rat (ischemia-reperfusion injury); format: in vivo
# Method: Chronic heart failure was induced in male wistar rats (224-240 g, 10-11 weeks of age) by ischemia-reperfusion (I/R) injury. For I/R protocol, the left anterior descending (LAD) coronary artery was occluded for 1 h. Drug treatment (5 mg/kg/d or 10 mg/kg/d in drinking water) was initiated 1 week after reperfusion and was maintained for a 3 month study period. […] Cardiac specimens were also analyzed to assess hypertrophy and collagen content. The study design is depicted in FIG. 3. Experiments were performed in a blinded manner. On parameters measured over time, comparison of Sham versus Vehicle and comparison of drug treatments are analyzed by 2 way ANOVAs with repeated measures. On parameters measured at sacrifice and morphometry, comparisons of Sham versus Vehicle are analyzed by t-test and comparisons of drug treatments by 1-way ANOVA followed by Dunnett test.
# [4] = 5 and 10 mg/kg/d in drinking water, one to three months, vs vehicle
# [5] = 5 and 10 mg/kg/d, invasive hemodynamics at 3 months, vs vehicle
structure (smiles),measurement,setting,value
"COc1ccc2c(c1)CN(Cc1ccc(C(=O)O)cc1)CCS2 [Compound 1, 4-((7-Methoxy-2,3-dihydrobenzo[f][1,4]thiazepin-4(5H)-yl)methyl)benzoic acid]",travel distance on voluntary wheel,[1],No effect
same,specific muscle force (EDL),[1]; 4 weeks,No effect
same,Class (metabolic bioavailability),[2],high
same,Clint_mic man (in vitro intrinsic clearance),"[2]; 10^-7 M, 0.33 mg protein/ml, NADPH",9.1 ml/min/gprot
same,MF mic % (metabolic bioavailability),[2]; predicted from Clint assuming total absorption,75%
same,systolic and diastolic cardiac function,"[3]; 5 mg/kg/d in drinking water, 3 months",beneficial effects
same,interstitial collagen content,"[3]; 5 and 10 mg/kg/d in drinking water, 3 months, vs vehicle",reduced
same,Ejection Fraction (EF),[3]; [4],significantly increased
same,LVEDV (LV end diastolic volume),[3]; [4],decreased
same,LVESV (LV end systolic volume),[3]; [4],decreased
same,body weight (BW),"[3]; 5 and 10 mg/kg/d, 3 months",No effects
same,hypertrophy (LV weight),"[3]; 5 and 10 mg/kg/d, 3 months",No effects
same,infarct size,"[3]; 5 and 10 mg/kg/d, 3 months",No effects
same,LV systolic pressure,"[3]; 5 and 10 mg/kg/d, invasive hemodynamics at 3 months",no statistically significant change
same,LV dP/dt max,[3]; [5],preservation
same,LV dP/dt min,[3]; [5],preservation
